≈ marks a conversion by molar mass, not a printed value.
Experiments:
Microbacterium = assay: Antibacterial activity against Microbacterium Pri2 after 120 mins by agar well diffusion method; format: functional; conditions: Pri2, 2 h
Bacillus pumilus = assay: Antibacterial activity against Bacillus pumilus SCG I after 120 mins by agar well diffusion method; format: functional; conditions: 2 h
Bacillus subtilis [1] = assay: Antibacterial activity against Bacillus subtilis 168 after 120 mins by agar well diffusion method; format: functional; conditions: subsp. subtilis str. 168, 2 h
Bacillus subtilis [2] = assay: Antibacterial activity against Bacillus subtilis BSn5 after 120 mins by agar well diffusion method; format: functional; conditions: BSn5, 2 h
Staphylococcus sciuri = assay: Antibacterial activity against Staphylococcus sciuri Bom1 after 120 mins by agar well diffusion method; conditions: Bom1, 2 h
Bacillus thuringiensis [3] = assay: Antibacterial activity against Bacillus thuringiensis BMB171 after 120 mins by agar well diffusion method; format: functional; conditions: BMB171, 2 h
Enterococcus faecalis [4] = assay: Antibacterial activity against Enterococcus faecalis Bom3 after 120 mins by agar well diffusion method; format: functional; conditions: Bom3, 2 h
Bacillus cereus = assay: Antibacterial activity against Bacillus cereus UW85 after 120 mins by agar well diffusion method; format: functional; conditions: UW85, 2 h
Bacillus firmus = assay: Antibacterial activity against Bacillus firmus BCRC 11944 after 120 mins by agar well diffusion method; format: functional; conditions: Cytobacillus firmus, BCRC 11944, 2 h
Bacillus thuringiensis [5] = assay: Antibacterial activity against Bacillus thuringiensis YBT-1518 after 120 mins by agar well diffusion method; format: functional; conditions: YBT-1518, 2 h
Staphylococcus aureus [6] = assay: Antibacterial activity against Staphylococcus aureus SG511 after 18 hrs by broth microdilution method; format: functional; conditions: SG511, 18 h
Streptococcus pneumoniae = assay: Antibacterial activity against Streptococcus pneumoniae BAA-255 after 18 to 20 hrs by agar well diffusion method; format: functional
[7] = test system: Staphylococcus epidermidis; assay: Antibacterial activity against Staphylococcus epidermidis NCTC 11047 after 18 to 20 hrs by agar well diffusion method; format: functional
Staphylococcus aureus [8] = assay: Antibacterial activity against Staphylococcus aureus 137/93A after 18 hrs by broth microdilution method; format: functional
Staphylococcus aureus [9] = assay: Antibacterial activity against Staphylococcus aureus SH1000 after 18 to 20 hrs by agar well diffusion method; format: functional
Micrococcus luteus [10] = assay: Antibacterial activity against Micrococcus luteus ATCC 4698 after 18 to 20 hrs by agar well diffusion method; format: functional; conditions: NCTC 2665
Staphylococcus aureus [11] = assay: Antibacterial activity against methicillin-resistant Staphylococcus aureus R33 after 18 to 20 hrs by agar well diffusion method; format: functional
Staphylococcus aureus [12] = assay: Ratio of MIC for Staphylococcus aureus 137/93A to MIC for Staphylococcus aureus SG511; format: functional
Enterococcus faecium [13] = assay: Antibacterial activity against vancomycin-resistant Enterococcus faecium 7131121 after 18 to 20 hrs by agar well diffusion method; format: functional
Enterococcus faecium [14] = assay: Antibacterial activity against Enterococcus faecium ATCC 19579 after 18 to 20 hrs by agar well diffusion method; format: functional
Staphylococcus aureus [15] = assay: Antibacterial activity against Staphylococcus aureus 137/93G after 18 hrs by broth microdilution method; format: functional
[16] = Ratio of MIC for Enterococcus faecalis ATCC 29212 to MIC for Enterococcus faecium ATCC 19579; format: functional
Enterococcus faecalis [17] = assay: Antibacterial activity against Enterococcus faecalis ATCC 29212 after 18 to 20 hrs by agar well diffusion method; format: functional
Micrococcus luteus [18] = assay: Antibacterial activity against Micrococcus luteus […] 8166 by agar diffusion assay; format: functional
Lactococcus lactis = assay: Antibacterial activity against Lactococcus lactis MG1614 by agar diffusion assay; format: functional

## C=C1NC(=O)[C@@H]2CSC(C)C(NC(=O)[C@@H]3CSC(C)C4NC(=O)CNC(=O)C(NC(=O)[C@H](CCCCN)NC(=O)[C@@H]5CSC[C@H](NC(=O)[C@@H](NC(=O)[C@H](CCCCN)NC(=O)[C@@H](NC(=O)[C@@H](NC(=O)/C(=C/C)NC(=O)/C(=C\C)NC(=O)[C@H](Cc6c[nH]c7ccccc67)NC(=O)C(=O)CC)[C@@H](C)CC)C(C)C)C(C)C)C(=O)N[C@@H](CCCCN)C(=O)N[C@@H](C)C(=O)N[C@@H](C(C)C)C(=O)N5)C(C)SC[C@H](NC4=O)C(=O)N[C@@H]([C@@H](C)CC)C(=O)N3)C(=O)N/C(=C\C)C(=O)N[C@@H](CSC[C@@H](C(=O)N[C@@H](CCCCN)C(=O)O)NC(=O)[C@H](CC(N)=O)NC1=O)C(=O)N2 (stereo not given in full)
Microbacterium
  MIC: 5.2 µM (≈ 14.5 µg/mL)
Bacillus pumilus
  MIC: 0.65 µM (≈ 1.81 µg/mL)
Bacillus subtilis [1]
  MIC: 5.2 µM (≈ 14.5 µg/mL)
Bacillus subtilis [2]
  MIC: 5.2 µM (≈ 14.5 µg/mL)
Staphylococcus sciuri
  MIC: 1.95 µM (≈ 5.44 µg/mL)
Bacillus thuringiensis [3]
  MIC: 1.3 µM (≈ 3.62 µg/mL)
Enterococcus faecalis [4]
  MIC: 2.6 µM (≈ 7.25 µg/mL)
Bacillus cereus
  MIC: 7.8 µM (≈ 21.7 µg/mL)
Bacillus firmus
  MIC: 0.326 µM (≈ 0.909 µg/mL)
Bacillus thuringiensis [5]
  MIC: 1.3 µM (≈ 3.62 µg/mL)

## C=C1NC(=O)C2NC(=O)[C@H](CC(C)C)NC(=O)C(NC(=O)[C@@H]3CSC(C)[C@H](NC(=O)[C@H](Cc4ccccc4)NC(=O)C4NC(=O)[C@@H](N)CSC4C)C(=O)N[C@@H](CC(C)C)C(=O)N4CCC[C@H]4C(=O)NCC(=O)NCC(=O)NCC(=O)NCC(=O)N[C@@H](C(C)C)C(=O)N3)C(C)SC[C@@H](NC(=O)[C@H](CCC(=O)O)NC1=O)C(=O)N[C@@H]([C@H](C)CC)C(=O)N/C=C/SC2C (stereo not given in full)
Staphylococcus aureus [6]
  MIC: 0.548 µM (≈ 1 µg/mL)
Streptococcus pneumoniae
  MIC: 1.1 µM (≈ 2 µg/mL)
[7]
  MIC: 8.94 µM (≈ 16.3 µg/mL)
Staphylococcus aureus [8]
  MIC: 19.2 µM (≈ 35 µg/mL)
Staphylococcus aureus [9]
  MIC: 17.5 µM (≈ 32 µg/mL)
Micrococcus luteus [10]
  MIC: 0.657 µM (≈ 1.2 µg/mL)
Staphylococcus aureus [11]
  MIC: 17.5 µM (≈ 32 µg/mL)
Staphylococcus aureus [12]
  Ratio: 35
Enterococcus faecium [13]
  MIC: 35.1 µM (≈ 64 µg/mL)
Enterococcus faecium [14]
  MIC: 17.5 µM (≈ 32 µg/mL)
Staphylococcus aureus [15]
  MIC: 16.4 µM (≈ 30 µg/mL)
[16]
  Ratio: 2
Enterococcus faecalis [17]
  MIC: 35.1 µM (≈ 64 µg/mL)

## C=C(NC(=O)[C@@H](NC(=O)[C@H](CCCCN)NC(=O)[C@H]1CSC(C)C2NC(=O)[C@H](CC(C)C)NC(=O)C(NC(=O)[C@@H](CCC(N)=O)NC(=O)[C@@H](CC(C)C)NC(=O)[C@@H](Cc3ccccc3)NC(=O)[C@H]3CSC(C)C(NC(=O)[C@@H](NC(=O)[C@H]4CSC(C)C(NC(=O)[C@H]5CSC[C@@H](NC(=O)[C@@H](CCCCN)NC(=O)[C@H](Cc6c[nH]c7ccccc67)NC(=O)CCC(=O)O)C(=O)N[C@H](CCC(=O)O)C(=O)NC(=C)C(=O)N[C@H](CC(C)C)C(=O)N5)C(=O)N5CCC[C@H]5C(=O)NCC(=O)N4)C(C)C)C(=O)NCC(=O)N[C@H](C)C(=O)N[C@H](CC(C)C)C(=O)N[C@H](CCC(N)=O)C(=O)N/C(=C\C)C(=O)N3)C(C)SC[C@H](NC2=O)C(=O)N[C@@H](CC(N)=O)C(=O)N1)[C@@H](C)CC)C(=O)N[C@H](CCCCN)C(=O)O (stereo not given in full)
Micrococcus luteus [18]
  MIC: 0.0994 µM (≈ 0.34 µg/mL)
Lactococcus lactis
  MIC: 5.55 µM (≈ 19 µg/mL)

From ChEMBL document CHEMBL3751701, “Class I and Class II Lanthipeptides Produced by Bacillus spp” (2015)
